The text below walks through data of PMC8952364, “Polyphenols as Inhibitors of Antibiotic Resistant Bacteria—Mechanisms Underlying Rutin Interference with Bacterial Virulence” (Pharmaceuticals, 2022).

Values after ≈ are worked out from the molar mass of the structure shown.

One series relates to E. coli IBRS E003. The experiment in a line: Antimicrobial microdilution assay (MIC/MBC). The format is cell-based, Escherichia coli. The following applies: Escherichia coli, IBRSE003. The procedure, abridged: (§1)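 Broth microdilution: 0.5 McFarland suspensions, diluted twenty-fold, were mixed 1:10 with polyphenol dilutions (0.0039–1 mg/mL) and incubated 24 h at 37 °C.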
The test system of a further series is E. coli IMD989. The series can be described thus: Antimicrobial microdilution assay (MIC/MBC). The format is cell-based, Escherichia coli. The settings on record: Escherichia coli, IMD989. In short, it runs like this:
as §1

The next series relates to K. pneumoniae Ni9. The series can be described thus: Antimicrobial microdilution assay (MIC/MBC). The format is cell-based, Klebsiella pneumoniae. The following applies: Klebsiella pneumoniae, NI9. In short, it runs like this: as §1
Another series has as its system HaCaT cells. The experiment in a line: Cytotoxicity in HaCaT cell line (crystal violet assay). The format is cell-based, human. The following applies: Homo sapiens, HaCaT, 24 h, read-out: IC50 (compound concentration that inhibited 50% of the cell growth). The procedure, abridged:
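HaCaT keratinocytes seeded 1 × 10^4 cells/well 24 h before treatment, then exposed to polyphenols for 24 h. Viable cells stained with crystal violet, absorbance at 590 nm. IC50 in μg/mL, triplicate with three readings each, mean ± SD.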

The test system of series [1] is P. aeruginosa IBRS P001. The experiment in a line: Catheter biofilm inhibition model. The format is cell-based, Pseudomonas aeruginosa. The settings on record: MIC and 0.5 MIC of rutin, 24 h. On the procedure:
The method was performed as described previously, with some modifications. Sterile silicon 16-mm Romed catheters (Van Oostveen Medical, Wilnis, The Netherlands) were cut into 1 cm lengths and placed in 24-well plates (Sarstedt, Nümbrecht, Germany). P. aeruginosa IBRS P001 and MRSA in TSB with 2% glucose (Torlak, Belgrade, Serbia) and rutin (0.25–1 MIC) were added for the inhibition assay. After incubation (37 °C, 24 h), the catheters were washed with PBS and transferred to 1.5 mL tubes. PBS was added and tubes were vortexed vigorously. The samples were diluted and seeded onto Plate Count Agar (HiMedia Laboratories, Mumbai, India). After being incubated at 37 °C for 24 h, the CFU (colony forming units) count was determined and the inhibition percentage relative to the untreated control was calculated.

Series [2] has as its system P. aeruginosa IBRS P001. The series can be described thus: Catheter biofilm eradication model (24 h old biofilm). The format is cell-based, Pseudomonas aeruginosa. On the procedure:
For the catheter biofilm eradication assay, P. aeruginosa and MRSA were incubated in TSB with 2% glucose with 1 cm long catheters in 24-well plates at 37 °C for 24 h. […] Subsequently, the catheters were washed and treated, as described above.

Series [3] concerns 24 h old P. aeruginosa IBRS P001 biofilms. The experiment in a line: Biofilm eradication, MTT assay (cell viability). The format is cell-based, Pseudomonas aeruginosa. On the procedure: The impact of rutin on P. aeruginosa IBRS P001 biofilm formation was determined as previously described by estimating the metabolic activity of microbial cells using an MTT assay. […] The supernatants were then ejected and the biofilms washed with PBS. MTT reagent (200 μL, 0.5 mg/mL) was added and the plate was incubated at 37 °C in the dark for 2 h. The resulting dye was dissolved in DMSO and the absorbance was measured at 570 nm in a microtiter plate reader Multiskan™ FC Microplate Photometer, Thermo Scientific™. The inhibition percentage of biofilm cell viability was calculated:%Inhibition = [(A570control − A570sample)/A570control] × 100
The bacterial cells were incubated in TSB enriched with 2% glucose in 96-well plates (Sarstedt, Germany) with adhesive bottom at 37 °C for 24 h. After incubation, wells were washed with PBS, and rutin (MBC–4 MBC) in TSB with 2% glucose was added. Incubation continued at 37 °C for another 24 h. The planktonic cells were removed.
The assays continued as described above for the crystal violet antibiofilm assay for the measurement of biofilm mass, biofilm MTT assay for the interference with cell viability, Congo red binding assay for estimation of exopolysaccharide production, and eDNA assay.

The test system of the next series is MRSA IBRS MRSA 011. The series can be described thus: Membrane permeability assay (nucleotide and protein leakage). The format is cell-based, Staphylococcus aureus. The settings on record: rutin MIC; more significant increase in absorbance at 260 and 280 nm after 90 min. On the procedure: The effect of rutin on membrane permeability (nucleotide and protein leakage) was evaluated as described earlier with some modifications. The culture of P. aeruginosa IBRS P001 and MRSA IBRS MRSA 011 was incubated overnight at 37 °C, washed, and suspended in 10 mM PBS in order to achieve the final density of 10^8 CFU/mL. Bacteria were incubated with rutin at a concentration equal to MIC for time intervals 0, 30, 60, and 90 min. Bacteria incubated with PBS were used as control. After incubation the mixture was filtered through a 0.22 μm pore size filter to remove […]. The optical density of the filtrate was measured at 260 and 280 nm with an Agilent/HP 8453 UV-Visible Spectrophotometer (Agilent Technologies, Santa Clara, CA, USA) at room temperature (25 °C).

The subject of series [4] is multiple drug resistant P. aeruginosa. Details: method as in doi:10.1016/j.foodcont.2018.02.044. The following applies: cited from earlier work.
In the next series the test system is P. aeruginosa MTCC 2488. More on the design: method as in doi:10.1016/j.foodcont.2018.02.044. The following applies: 48 h incubation, cited from earlier work.
Setting [5] is: subcultivation, 24 h at 37 °C, read-out: MBC.

As to `C[C@@H]1O[C@@H](OC[C@H]2O[C@@H](Oc3c(-c4ccc(O)c(O)c4)oc4cc(O)cc(O)c4c3=O)[C@H](O)[C@@H](O)[C@@H]2O)[C@H](O)[C@H](O)[C@H]1O` [Rutin, rutin], the MIC in the series with E. coli IBRS E003 (37 °C, 24 h, read-out: MIC) was over 1000 µg/mL; in the series with E. coli IMD989 (37 °C, 24 h, read-out: MIC), 1000 µg/mL (≈ 1640 µM); in the series with K. pneumoniae Ni9 (37 °C, 24 h, read-out: MIC) it was 1000 µg/mL (≈ 1640 µM); in series [4], 800 µg/mL (≈ 1310 µM). In addition, the MBC is over 1000 µg/mL with E. coli IBRS E003 (setting [5]), 1000 µg/mL (≈ 1640 µM) in the series on E. coli IMD989 (setting [5]) and 1000 µg/mL (≈ 1640 µM) with K. pneumoniae Ni9 (setting [5]). For the same compound, in the series with HaCaT cells, the IC50 is over 1000 µg/mL. Further, the “biofilm inhibition on catheter” value in the series with P. aeruginosa IBRS P001 [1] is reported as 100%. For the same compound, the “number of colonies attached to the urinary catheters” value in the series with P. aeruginosa IBRS P001 [1] turned out to be 0. In the series with P. aeruginosa IBRS P001 [2] (2 MBC, 24 h old biofilm), this compound registered a catheter biofilm eradicated of 73.7%. Further, in the series on P. aeruginosa IBRS P001 [2] (24 h old catheter biofilm, concentration not printed (MBC-4MBC tested, probably 4 MBC)), the “biofilm cells remained viable after the treatment” value was 10.9%. Also, the viability at 1000 µg/mL in series [3] (Pseudomonas aeruginosa, MBC, 1 mg/mL, read-out: viability of cells within the biofilms) was 92%. The “viability of cells within the biofilms” value in [3] (maximal concentration examined (4 MBC)) was determined as 55%. Besides, in the series on MRSA IBRS MRSA 011, the “cell membrane integrity, in words” value was “disrupted”. Besides, the highest biofilm inhibition in the series with P. aeruginosa MTCC 2488 (400 µg/mL) is 45.33%. In addition, the biofilm inhibition result with P. aeruginosa MTCC 2488 (sub-MIC concentrations 50–400 µg/mL) is recorded as “up to 50%”.
